Data published in patent US5166214A, “Use of imidazoles for the treatment of atherosclerosis” (priority 1990, dated 1992).
Where two headings read alike, the source gives them in different places.

Key:
[1] = target: T1, Acyl-CoA: Cholesterol Acyltransferase (ACAT) (Rattus norvegicus, UniProt Q7TQM4); test: Inhibition of acyl-CoA: cholesterol acyltransferase (ACAT) in hepatic microsomes (in vitro); format: biochemical, rat (male Sprague Dawley)
T1 construct: Microsomes were obtained by differential centrifugation; from tissue; host or cells: liver microsomes of male Sprague Dawley rats
T1 sequence (Q7TQM4 1-524): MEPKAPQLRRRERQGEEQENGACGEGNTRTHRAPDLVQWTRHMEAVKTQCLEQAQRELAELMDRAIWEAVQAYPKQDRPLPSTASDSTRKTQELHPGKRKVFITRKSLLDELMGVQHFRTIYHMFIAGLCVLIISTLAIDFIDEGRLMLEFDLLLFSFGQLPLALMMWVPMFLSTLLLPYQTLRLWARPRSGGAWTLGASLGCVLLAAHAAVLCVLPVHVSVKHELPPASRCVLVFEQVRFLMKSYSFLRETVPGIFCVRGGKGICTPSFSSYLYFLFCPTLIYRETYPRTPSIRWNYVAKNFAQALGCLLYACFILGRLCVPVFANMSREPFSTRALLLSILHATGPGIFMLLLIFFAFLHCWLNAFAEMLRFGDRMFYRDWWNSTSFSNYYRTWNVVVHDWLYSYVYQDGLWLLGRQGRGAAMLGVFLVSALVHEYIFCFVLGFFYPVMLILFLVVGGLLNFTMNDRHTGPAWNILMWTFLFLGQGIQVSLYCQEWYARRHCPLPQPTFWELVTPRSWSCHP
Method: A. Assay of the Inhibition of Acyl-CoA: Cholesterol Acyltransferase (ACAT) in Hepatic Microsomes
The ability of the compounds to inhibit ACAT, the enzyme responsible for the intracellular synthesis of cholesteryl esters, was tested as follows. Male Sprague Dawley rats weighing 150-300 g, were fed rat chow ad libitum. The animals were fasted for twenty-four hours prior to being sacrificed by decapitation. The livers were perfused in situ with 50 ml of cold 0.25M sucrose, excised, and homogenized in three volumes of 0.1M phosphate buffer, pH 7.4, that contained 0.5 mM EDTA (ethylenediaminetetraacetic acid), 1.0 mM glutathione, 0.25M sucrose and […]. Microsomes were obtained by differential centrifugation; the supernatant from an initial spin at 15,000×g for 15 minutes was centrifuged at 105,000×g for 1 hour to pellet the microsomes. The microsomes were suspended in homogenization buffer, reisolated by centrifugation, and stored at -70° C. Microsomes were used within one month of preparation.
The control assay in a final volume of 200 μl consisted of 200 μg of microsomal protein, 75 μM ^14 C-oleoyl-CoA (10,000 dpm/nmol) in 0.1M phosphate, pH 7.4, that contained 1 mM glutathione. Compounds were added in 5 μl of DMSO (dimethyl sulfoxide) and additional controls were run with DMSO only. All components, except the oleoyl-CoA, were preincubated for 15 min. at 37° C. prior to the initiation of the reaction by the addition of oleoyl-CoA. The assay was terminated after 10 min by the addition of 4 ml of chloroform:methanol (2:1, v/v). 20,000 dpm of ^3 H-cholesteryl oleate and 10 μg of unlabeled cholesteryl oleate and oleic acid were added as an internal standard and carriers, respectively. After allowing 10 min. for lipid extraction, the samples were centrifuged at 1,000×g for 10 min. to separate the solvent layers. The chloroform layer containing the neutral lipids was spotted onto a Baker SI250-Pa silica gel TLC plate and the plate developed using a hexane: diethyl ether: acetic acid (170:30:1 v/v/v) mobile phase. The lipids were visualized by their interaction with iodine vapor and the cholesteryl ester spot was scraped into a scintillation vial and counted.

[2] = tested on: murine macrophage-like cell line J774.A1; test: Inhibition of cholesterol esterification in mammalian cells (macrophage assay); format: cell-based; details: J774.A1 macrophages loaded with ac-LDL, 14C-oleic acid; read-out: Cholesterol Esterification IC50
Method: B. Assay of the Inhibition of Cholesterol Esterification in Mammalian Cells
The esterification of cholesterol was determined in the murine macrophage-like cell line J774.A1. Cells were seeded in 35 mm wells at a density of 300,000 cells per well in 2 mls of Dulbecco's Eagle Medium (DMEM) supplemented with 10% fetal bovine serum (FBS). Cells were incubated at 37° C. in an atmosphere of 5% CO2 and 93% humidity. After 24 hours the media was changed to 0.68 mls 10% FBS-DMEM containing 34 μg of acetylated human low density lipoprotein (ac-LDL) to increase the intracellular concentration of cholesterol and promote esterification. At 41 hours, various inhibitors were added to the cells in DMSO (10 μl/ml maximum). At 43 hours, the cells were pulsed with 0.1 mM ^14 C-oleic acid (10,000 dpm/nmol) complexed with BSA (bovine serum albumin) to follow cholesterol ester formation. The experiment was terminated at 45 hours by washing the monolayers 3 times with 3 ml of Tris-buffered saline at 4° C. The lipids were extracted by incubating the monolayers with 1.5 ml of hexane:isopropanol (3:2, v/v) for 30 min. under gentle agitation. During this period, 10,000 dpm 3H-cholesteryl linoleate and 10 μg of cholesteryl oleate were added as an internal standard and carrier respectively. The organic solvent was removed and the cells were washed with an additional 1.0 ml of hexane: isopropanol which was combined with the original extract. The cells were allowed to dry overnight, digested with 1.5 ml of 0.2N sodium hydroxide for 1 hour and an aliquot of the solubilized protein used for protein determination using the Lowry method. The organic extract was taken to dryness, the residue resuspended in 100 μl of chloroform and the lipids separated on silica gel impregnated glass fiber plates using a hexane:diethylether:acetic acid (170:30:1, v/v/v) solvent system. Individual lipids were visualized with iodine and the cholesteryl ester spot cut out and transferred to scintillation vials to determine the amount of radioactivity. The conversion of oleic acid to cholesteryl ester in the control averaged 0.54 […] and was increased upon the addition of ac-LDL to about 10.69±0.69 […]. […] It should be noted that many of the intermediates had inhibitory activity in the in vitro ACAT assay and in the macrophage assay.

[3] = rat hepatic microsomes, 75 μM 14C-oleoyl-CoA, pH 7.4, 37° C., read-out: In Vitro ACAT IC50

Row | Structure (SMILES) | IC50 [1, 3] | IC50 [2] | IC50 ([1]; In Vitro ACAT IC50) | IC50 ([1]; In Vitro ACAT IC50, rat hepatic microsomes, 75 μM 14C-oleoyl-CoA, pH 7.4, 37° C.)
1 | CCCCCCCN(CCCCCSc1nc(-c2ccccc2)c(-c2ccccc2)[nH]1)C(=O)Nc1ccccc1 [Example 2, N-[5-(4,5-diphenyl-1H-imidazol-2-ylthio)pentyl]-N-heptyl-N'-phenylurea] | 0.003 µM | 0.8 µM |  | 
2 | CCCCN(CCCCCCCCSc1nc(-c2ccccc2)c(-c2ccccc2)[nH]1)C(=O)Nc1ccc(F)cc1F [Example 4, N-butyl-N'-(2,4-difluorophenyl)-N-[8-(4,5-diphenyl-1H-imidazol-2-ylthio)octyl]urea] | 0.06 µM | 4.6 µM |  | 
3 | CCCCCCCN(CCCCCSc1nc(-c2ccccc2)c(-c2ccccc2)[nH]1)C(=O)Nc1ccc(OC)cc1OC [Example 5, N'-(2,4-dimethoxyphenyl)-N-[5-(4,5-diphenyl-1H-imidazol-2-ylthio)pentyl]-N-heptylurea] | 0.012 µM | 2.5 µM |  | 
4 | CCCCCCCN(CCCCCSc1nc(-c2ccccc2)c(-c2ccccc2)[nH]1)C(=O)NC [Example 7, N-[5-(4,5-diphenyl-1H-imidazol-2-ylthio)pentyl]-N-heptyl-N'-methylurea] | 0.041 µM | 7.5 µM |  | 
5 | CCCN(CCSc1nc(-c2ccccc2)c(-c2ccccc2)[nH]1)C(=O)Nc1ccc(F)cc1F [Example 9, N'-(2.4-difluorophenyl)-N[-2-(4,5-diphenyl-1H-imidazol-2-ylthio)ethyl]-N-propylurea] | 0.93 µM | 11.2 µM |  | 
6 | CCCCCCCN(CCCCCSc1nc(-c2ccccc2)c(-c2ccccc2)n1-c1ccccc1)C(=O)Nc1ccc(F)cc1F [Example 20] | 0.02 µM | 54.5 µM |  | 
7 | CCCCCCCN(CCCCCSc1nc(-c2ccccc2)c(-c2ccccc2)[nH]1)C(=O)Nc1cccc(F)c1 [Example 53, N-[5-(4,5-diphenyl-1H-imidazol-2-ylthio)pentyl]-N'-(3-fluorophenyl)-N-heptylurea] | 0.017 µM | 0.4 µM |  | 
8 | CCCCCCCN(CCCCCSc1nc(-c2ccccc2)c(-c2ccccc2)[nH]1)C(=O)Nc1c(Cl)cccc1Cl [Example 64, N'-(2,6-dichlorophenyl)-N-[5-(4,5-diphenyl-1H-imidazol-2-ylthio)pentyl]-N-heptylurea] | 0.03 µM | 0.6 µM |  | 
9 | CCCCCCCN(CCCCCSc1nc(-c2ccccc2)c(-c2ccccc2)[nH]1)C(=O)Nc1ccc(C#N)cc1 [Example 85, N'-(4-cyanophenyl)-N-[5-(4,5-diphenyl-1H-imidazol-2-ylthio)pentyl]-N-heptylurea] |  | 3.1 µM | 0.06 µM | 
10 | CCCCCCCCNC(=O)N(CCCCCCC)CCCCCSc1nc(-c2ccccc2)c(-c2ccccc2)[nH]1 [Example 97, N-[5-(4,5-diphenyl-1H-imidazol-2-ylthio)pentyl]-N-heptyl-N'-octylurea] | 0.025 µM | 0.7 µM |  | 
11 | CCCCCCCN(CCCCCSc1nc(-c2ccccn2)c(-c2ccccn2)[nH]1)C(=O)Nc1ccc(F)cc1F [Example 107, N-[5-[4,5-bis(2-pyridinyl)-1H-imidazol-2-ylthio]pentyl]-N'-(2,4-difluorophenyl)-N-heptylurea] | 1 µM | 2.3 µM |  | 
12 | CCCCCCCN(CCCCCSc1nc(-c2cccs2)c(-c2cccs2)[nH]1)C(=O)Nc1ccc(F)cc1F [Example 110, N-[5-[4,5-bis(2-thienyl)-1H-imidazol-2-ylthio]pentyl]-N'-(2,4-difluorophenyl)-N-heptylurea] | 0.06 µM | 0.9 µM |  | 
13 | CCCCCCCN(CCCCCSc1nc(-c2ccc(F)cc2)c(-c2ccc(F)cc2)[nH]1)C(=O)Nc1ccc(F)cc1F [Example 114, N-[5-[4,5-bis(4-fluorophenyl)-1H-imidazol-2-ylthio]pentyl]-N'-(2,4-difluorophenyl)-N-heptylurea] | 0.04 µM | 3.5 µM |  | 
14 | CCCCCCCN(CCCCCSc1nc(-c2ccc(OC)cc2)c(-c2ccc(OC)cc2)[nH]1)C(=O)Nc1ccc(F)cc1F [Example 118, N-[5-[4,5-bis(4-methoxyphenyl)-1H-imidazol-2-ylthio]pentyl]-N'-(2,4-difluorophenyl)-N-heptylurea] | 0.17 µM | 0.1 µM |  | 
15 | CCCCCCCN(CCCCCSc1nc(-c2ccc(C)cc2)c(-c2ccc(C)cc2)[nH]1)C(=O)Nc1ccc(F)cc1F [Example 122, N-[5-[4,5-bis(4-methylphenyl)-1H-imidazol-2-ylthio]pentyl]-N'-(2,4-difluorophenyl)-N-heptylurea] | 0.08 µM | 0.3 µM |  | 
16 | CCCCCCCN(CCCCCSc1nc(-c2ccc(Cl)cc2)c(-c2ccc(Cl)cc2)[nH]1)C(=O)Nc1ccc(F)cc1F [Example 137] | 0.076 µM | 3.4 µM |  | 
17 | CCCCCCCN(CCCCCSc1ncc[nH]1)C(=O)Nc1ccc(F)cc1F [Example 186] | 2.85 µM | 6.2 µM |  | 
18 | CCCCCCCN(CCCCCSc1nc(C(C)C)c(C(C)C)[nH]1)C(=O)Nc1ccc(F)cc1F [Example 188, N-[5-[4,5-bis(1-methylethyl)-1H-imidazol-2-ylthio]pentyl]-N'-(2,4-difluorophenyl)-N-heptylurea] | 0.02 µM | 0.9 µM |  | 
19 | CCCCCCCN(CCCCCSc1nc(CCC)c(CCC)[nH]1)C(=O)Nc1ccc(F)cc1F [Example 193, N'-(2,4-difluorophenyl)-N-[5-(4,5-dipropyl-1H-imidazol-2-ylthio)pentyl]-N-heptylurea] | 0.06 µM | 2.7 µM |  | 
20 | CCCCCCCN(CCCCCSc1nc(-c2ccccn2)c(-c2ccccn2)[nH]1)C(=O)Nc1ccc(F)cc1F [Example 194] | 1.9 µM | 4.1 µM |  | 
21 | CCCCCCCN(CCCCCSc1nc(-c2cccc(OC)c2)c(-c2cccc(OC)c2)[nH]1)C(=O)Nc1ccc(F)cc1F [Example 195, N-[5-[4,5-bis(3-methoxyphenyl)-1H-imidazol-2-ylthio]pentyl]-N'-(2,4-difluorophenyl)-N-heptylurea] | 0.04 µM | 0.4 µM |  | 
22 | CCCCN(CCCCCCCCSc1nc(-c2ccccc2)c(-c2ccccc2)[nH]1)C(=O)NC(C)C [Example 262] | 0.2 µM |  |  | 
23 | CCCCCCCN(CCCCCSc1nc(-c2ccc(N(C)C)cc2)c(-c2ccc(N(C)C)cc2)[nH]1)C(=O)Oc1ccccc1 [Example 409, Phenyl [5-[4,5-bis(4-(dimethylamino)phenyl)-1H-imidazol-2-ylthio]pentyl]heptylcarbamate] |  |  |  | 0.12 µM
